Test results reported in ChEMBL document CHEMBL1201862, “PubChem BioAssay data set” (2004).
Calls of active or inactive are those of the source.

Tests used:
[1] = Trypanosoma cruzi growth suppression in host cells – NIH3T3 host cells, beta-gal luminescence, confirmation (AID 2044); format: functional, cell-based;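 also: intracellular parasites grown in NIH/3T3 mouse fibroblasts as host cells; luminescent beta-galactosidase reporter signal from transgenic T. cruzi replicating inside host cells; inhibitors lower the luminescence signal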
Caspase-3 [2] = biological target: T1, Caspase-3 (Homo sapiens, UniProt P42574); format: functional
T1 sequence (P42574 whole entry): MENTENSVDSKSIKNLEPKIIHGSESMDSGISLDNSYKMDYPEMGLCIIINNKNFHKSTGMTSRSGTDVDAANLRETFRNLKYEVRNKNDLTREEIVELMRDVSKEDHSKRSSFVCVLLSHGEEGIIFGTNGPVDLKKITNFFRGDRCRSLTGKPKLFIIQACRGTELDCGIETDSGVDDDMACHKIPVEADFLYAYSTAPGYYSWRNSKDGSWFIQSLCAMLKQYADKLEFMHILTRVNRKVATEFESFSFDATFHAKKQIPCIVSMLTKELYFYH

Caspase-9 = Caspase-9 (Homo sapiens, UniProt P55211); experiment: inhibitors of purified CASP9 protease – biochemical, fluorescence, plate reader, cherry-picked samples, selectivity assay for caspase-6 inhibitor project, dose response (AID 743293)
[3] = biological target: Serine/threonine-protein phosphatase PP1-alpha catalytic subunit (Homo sapiens, UniProt P62136); experiment: inhibition of protein phosphatase 1 activity – biochemical, fluorescence, dose response (AID 2394)
Caspase-3 [4] = biological target: T1, Caspase-3; experiment: Dose-response confirmation of uHTS inhibitor hits of Sentrin-Specific Protease 8 in a Caspase-3 Fluorescence assay.; format: functional
[5] = biological target: Protein kinase C theta type (Homo sapiens, UniProt Q04759); experiment: Navigating the Kinome. Panel member name: PRKCQ; format: functional
[6] = biological target: Megakaryocyte-associated tyrosine-protein kinase (Homo sapiens, UniProt P42679); format: functional;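 also: affinity measured as one member of a kinase panel (Navigating the Kinome) against MATK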
[7] = biological target: Ribosomal protein S6 kinase alpha-3 (Homo sapiens, UniProt P51812); format: functional;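 also: measured within a kinome-wide profiling panel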
[8] = biological target: Tyrosine-protein kinase JAK2 (Homo sapiens, UniProt O60674); format: functional;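 also: JAK2 tested as one member of a kinase panel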
Tyrosine-protein kinase JAK2, sequence (O60674 whole entry): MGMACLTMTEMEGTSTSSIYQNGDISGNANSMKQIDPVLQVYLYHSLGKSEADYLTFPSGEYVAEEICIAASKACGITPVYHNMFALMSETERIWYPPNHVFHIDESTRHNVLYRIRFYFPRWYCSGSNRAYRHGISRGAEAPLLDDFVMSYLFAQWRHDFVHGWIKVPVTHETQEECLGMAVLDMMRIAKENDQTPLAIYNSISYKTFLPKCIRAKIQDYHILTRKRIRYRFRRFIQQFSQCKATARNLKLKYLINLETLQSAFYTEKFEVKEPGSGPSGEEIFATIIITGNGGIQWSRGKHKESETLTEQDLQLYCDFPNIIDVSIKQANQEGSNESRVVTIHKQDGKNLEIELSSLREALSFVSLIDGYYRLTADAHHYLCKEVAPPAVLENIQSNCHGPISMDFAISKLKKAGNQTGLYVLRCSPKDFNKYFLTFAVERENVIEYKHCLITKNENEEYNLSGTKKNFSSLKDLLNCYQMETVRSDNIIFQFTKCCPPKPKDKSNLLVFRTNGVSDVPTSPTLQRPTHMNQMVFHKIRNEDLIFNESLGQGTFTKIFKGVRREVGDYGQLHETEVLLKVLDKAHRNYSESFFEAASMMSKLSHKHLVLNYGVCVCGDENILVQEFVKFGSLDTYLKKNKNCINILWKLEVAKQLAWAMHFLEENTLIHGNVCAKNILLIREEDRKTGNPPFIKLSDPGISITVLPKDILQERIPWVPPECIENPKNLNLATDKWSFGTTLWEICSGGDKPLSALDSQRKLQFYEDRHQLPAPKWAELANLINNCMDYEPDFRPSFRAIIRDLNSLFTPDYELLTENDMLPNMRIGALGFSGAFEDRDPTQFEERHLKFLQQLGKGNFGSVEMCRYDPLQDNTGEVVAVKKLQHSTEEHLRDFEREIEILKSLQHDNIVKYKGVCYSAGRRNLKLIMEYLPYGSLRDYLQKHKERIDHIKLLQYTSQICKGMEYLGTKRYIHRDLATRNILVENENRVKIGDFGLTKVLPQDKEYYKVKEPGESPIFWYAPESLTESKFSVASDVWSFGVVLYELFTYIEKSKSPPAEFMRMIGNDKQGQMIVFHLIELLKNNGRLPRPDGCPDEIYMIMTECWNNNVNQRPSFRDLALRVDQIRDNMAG

[9] = biological target: Serine/threonine-protein kinase TBK1 (Homo sapiens, UniProt Q9UHD2); experiment: Navigating the Kinome. Panel member name: TBK1; format: functional
Serine/threonine-protein kinase TBK1, sequence (Q9UHD2 whole entry): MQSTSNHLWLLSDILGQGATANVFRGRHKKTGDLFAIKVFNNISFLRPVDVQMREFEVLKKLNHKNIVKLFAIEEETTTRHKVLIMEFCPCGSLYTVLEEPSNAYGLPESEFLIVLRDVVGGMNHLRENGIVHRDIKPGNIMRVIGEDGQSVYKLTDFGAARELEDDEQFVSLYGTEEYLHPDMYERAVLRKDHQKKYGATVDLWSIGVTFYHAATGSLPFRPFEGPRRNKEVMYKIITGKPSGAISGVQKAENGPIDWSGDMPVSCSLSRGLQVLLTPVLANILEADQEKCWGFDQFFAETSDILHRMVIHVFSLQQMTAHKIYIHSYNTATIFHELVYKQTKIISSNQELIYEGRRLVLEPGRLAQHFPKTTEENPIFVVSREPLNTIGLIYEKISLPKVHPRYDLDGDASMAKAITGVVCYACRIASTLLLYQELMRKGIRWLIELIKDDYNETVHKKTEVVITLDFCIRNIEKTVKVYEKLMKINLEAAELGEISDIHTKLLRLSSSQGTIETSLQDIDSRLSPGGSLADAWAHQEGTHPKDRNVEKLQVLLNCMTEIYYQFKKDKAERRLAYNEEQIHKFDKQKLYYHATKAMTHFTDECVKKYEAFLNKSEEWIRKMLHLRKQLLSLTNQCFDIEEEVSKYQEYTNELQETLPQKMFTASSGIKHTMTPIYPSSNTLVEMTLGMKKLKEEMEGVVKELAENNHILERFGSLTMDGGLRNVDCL

[10] = biological target: Testis-specific serine/threonine-protein kinase 2 (Homo sapiens, UniProt Q96PF2); format: functional;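 also: part of the Navigating the Kinome panel, target entry STK22B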
Testis-specific serine/threonine-protein kinase 2, sequence (Q96PF2 whole entry): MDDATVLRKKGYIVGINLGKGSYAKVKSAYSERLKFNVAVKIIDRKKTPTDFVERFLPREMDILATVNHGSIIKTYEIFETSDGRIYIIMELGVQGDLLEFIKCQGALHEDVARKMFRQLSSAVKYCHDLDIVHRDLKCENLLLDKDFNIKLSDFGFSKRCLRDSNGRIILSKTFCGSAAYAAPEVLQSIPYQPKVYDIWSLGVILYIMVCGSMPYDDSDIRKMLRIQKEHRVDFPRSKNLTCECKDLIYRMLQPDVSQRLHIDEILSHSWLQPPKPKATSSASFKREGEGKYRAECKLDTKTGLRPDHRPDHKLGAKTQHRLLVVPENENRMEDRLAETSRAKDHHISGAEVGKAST

[11] = biological target: Rho-associated protein kinase 2 (Homo sapiens, UniProt O75116); format: functional
[12] = biological target: Tyrosine-protein kinase ITK/TSK (Homo sapiens, UniProt Q08881); format: functional;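 also: affinity for ITK measured as one member of a broad kinase panel profiling binding across the kinome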
[13] = biological target: Proto-oncogene tyrosine-protein kinase ROS (Homo sapiens, UniProt P08922); format: functional;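 also: ROS1 tested as one member of a kinome-wide kinase panel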
[14] = biological target: Mitogen-activated protein kinase 13 (Homo sapiens, UniProt O15264); format: functional
[15] = biological target: Glycogen synthase kinase-3 alpha (Homo sapiens, UniProt P49840); format: functional;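 also: GSK3A result taken from a broad kinome-wide kinase panel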
Glycogen synthase kinase-3 alpha, sequence (P49840 whole entry): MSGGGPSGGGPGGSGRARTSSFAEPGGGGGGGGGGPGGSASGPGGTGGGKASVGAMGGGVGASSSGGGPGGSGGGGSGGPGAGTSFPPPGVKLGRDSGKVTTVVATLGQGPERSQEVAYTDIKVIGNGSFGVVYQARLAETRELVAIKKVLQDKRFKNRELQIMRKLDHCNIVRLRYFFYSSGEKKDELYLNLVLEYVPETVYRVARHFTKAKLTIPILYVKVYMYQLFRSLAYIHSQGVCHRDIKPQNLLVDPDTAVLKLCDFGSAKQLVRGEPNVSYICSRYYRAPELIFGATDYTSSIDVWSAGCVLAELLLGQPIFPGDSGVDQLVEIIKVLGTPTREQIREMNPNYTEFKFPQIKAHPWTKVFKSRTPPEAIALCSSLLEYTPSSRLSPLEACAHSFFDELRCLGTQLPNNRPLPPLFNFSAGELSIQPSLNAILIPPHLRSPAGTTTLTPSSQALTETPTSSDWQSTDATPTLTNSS

[16] = biological target: Mitogen-activated protein kinase kinase kinase kinase 2 (Homo sapiens, UniProt Q12851); format: functional;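 also: measured as one member of a kinome-wide kinase panel, with MAP4K2 as the panel entry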
[17] = biological target: Dual specificity tyrosine-phosphorylation-regulated kinase 3 (Homo sapiens, UniProt O43781); format: functional;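 also: measured as one member of a broad kinase panel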
[18] = biological target: Receptor tyrosine-protein kinase erbB-2 (Homo sapiens, UniProt P04626); experiment: Navigating the Kinome. Panel member name: ERBB2; format: functional
[19] = biological target: Vascular endothelial growth factor receptor 2 (Homo sapiens, UniProt P35968); format: functional
Vascular endothelial growth factor receptor 2, sequence (P35968 whole entry): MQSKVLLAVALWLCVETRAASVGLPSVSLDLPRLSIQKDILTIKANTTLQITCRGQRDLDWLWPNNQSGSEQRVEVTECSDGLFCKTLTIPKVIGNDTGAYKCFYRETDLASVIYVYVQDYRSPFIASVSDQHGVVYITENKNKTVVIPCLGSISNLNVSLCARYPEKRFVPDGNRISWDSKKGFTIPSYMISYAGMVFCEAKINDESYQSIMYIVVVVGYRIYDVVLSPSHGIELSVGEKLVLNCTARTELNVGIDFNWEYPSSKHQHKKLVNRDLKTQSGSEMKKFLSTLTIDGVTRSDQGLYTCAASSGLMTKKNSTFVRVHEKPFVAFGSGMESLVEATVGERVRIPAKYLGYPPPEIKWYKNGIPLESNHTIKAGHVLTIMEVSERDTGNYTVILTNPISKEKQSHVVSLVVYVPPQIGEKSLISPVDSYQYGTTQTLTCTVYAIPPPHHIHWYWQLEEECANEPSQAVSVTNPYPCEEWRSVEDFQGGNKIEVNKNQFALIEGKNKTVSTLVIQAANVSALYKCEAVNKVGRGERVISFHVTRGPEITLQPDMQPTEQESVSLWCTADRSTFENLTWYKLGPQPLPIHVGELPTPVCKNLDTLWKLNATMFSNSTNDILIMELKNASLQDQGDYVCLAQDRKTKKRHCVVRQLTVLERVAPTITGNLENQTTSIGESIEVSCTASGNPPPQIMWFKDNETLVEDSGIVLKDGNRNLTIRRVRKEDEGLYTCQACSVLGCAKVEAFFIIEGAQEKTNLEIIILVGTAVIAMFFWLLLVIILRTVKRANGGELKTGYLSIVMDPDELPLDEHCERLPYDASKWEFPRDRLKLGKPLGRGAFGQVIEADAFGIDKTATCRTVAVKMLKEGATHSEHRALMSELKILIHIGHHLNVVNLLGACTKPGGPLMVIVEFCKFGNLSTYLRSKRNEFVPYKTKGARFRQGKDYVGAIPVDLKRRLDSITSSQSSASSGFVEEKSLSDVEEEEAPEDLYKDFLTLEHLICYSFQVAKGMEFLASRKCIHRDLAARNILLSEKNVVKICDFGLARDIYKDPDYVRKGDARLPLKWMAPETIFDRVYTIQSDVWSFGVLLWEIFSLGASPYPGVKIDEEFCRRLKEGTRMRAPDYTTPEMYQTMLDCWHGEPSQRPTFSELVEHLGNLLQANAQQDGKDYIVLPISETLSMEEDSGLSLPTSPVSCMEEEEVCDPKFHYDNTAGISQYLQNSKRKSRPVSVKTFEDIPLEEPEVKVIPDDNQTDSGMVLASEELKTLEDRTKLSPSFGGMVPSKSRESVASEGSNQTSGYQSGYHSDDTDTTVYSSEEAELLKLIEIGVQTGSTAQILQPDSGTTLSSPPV

Focal adhesion kinase 1 = Focal adhesion kinase 1 (Homo sapiens, UniProt Q05397); format: functional;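 also: measured as one member of a kinome panel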
[20] = biological target: Tyrosine-protein kinase Fer (Homo sapiens, UniProt P16591); format: functional;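 also: FER tested as one member of a kinome panel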
Tyrosine-protein kinase Fer, sequence (P16591 whole entry): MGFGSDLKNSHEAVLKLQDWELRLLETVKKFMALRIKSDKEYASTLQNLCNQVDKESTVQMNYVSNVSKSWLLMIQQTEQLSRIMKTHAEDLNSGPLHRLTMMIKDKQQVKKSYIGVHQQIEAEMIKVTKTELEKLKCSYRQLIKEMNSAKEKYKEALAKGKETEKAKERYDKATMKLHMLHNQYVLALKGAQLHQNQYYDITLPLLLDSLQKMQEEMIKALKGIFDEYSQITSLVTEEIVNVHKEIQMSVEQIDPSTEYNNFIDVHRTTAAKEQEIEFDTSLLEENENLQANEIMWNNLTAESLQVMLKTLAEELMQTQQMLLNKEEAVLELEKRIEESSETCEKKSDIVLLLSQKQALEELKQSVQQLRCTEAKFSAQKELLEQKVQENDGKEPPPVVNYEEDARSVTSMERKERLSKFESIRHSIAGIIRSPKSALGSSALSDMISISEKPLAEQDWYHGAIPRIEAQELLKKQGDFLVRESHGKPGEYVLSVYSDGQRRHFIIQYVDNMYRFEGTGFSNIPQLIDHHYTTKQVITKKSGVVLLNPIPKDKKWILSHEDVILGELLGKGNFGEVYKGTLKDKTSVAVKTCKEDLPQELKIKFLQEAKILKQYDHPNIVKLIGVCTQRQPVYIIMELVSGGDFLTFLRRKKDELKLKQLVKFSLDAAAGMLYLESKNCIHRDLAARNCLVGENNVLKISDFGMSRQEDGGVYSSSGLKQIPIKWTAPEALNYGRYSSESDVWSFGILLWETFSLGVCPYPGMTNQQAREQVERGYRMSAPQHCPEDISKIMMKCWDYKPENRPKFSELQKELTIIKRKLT

[21] = biological target: Calcium/calmodulin-dependent protein kinase type 1 (Homo sapiens, UniProt Q14012); format: functional
[22] = biological target: Serine/threonine-protein kinase pim-2 (Homo sapiens, UniProt Q9P1W9); format: functional;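 also: value comes from a broad kinase panel profiling study in which PIM2 was one of the panel members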
[23] = biological target: Cyclin-dependent kinase 7 (Homo sapiens, UniProt P50613); format: functional;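 also: value comes from a kinome-wide kinase profiling panel in which CDK7 is one member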
[24] = biological target: Vascular endothelial growth factor receptor 1 (Homo sapiens, UniProt P17948); format: functional;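 also: measured within a kinome-wide profiling panel, FLT1 as the panel member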
[25] = biological target: BDNF/NT-3 growth factors receptor (Homo sapiens, UniProt Q16620); format: functional;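 also: NTRK2 measured as one member of a broad kinome-wide kinase profiling panel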

SMILES: Cc1c(NC(=O)C(C)OC(=O)c2ccc([N+](=O)[O-])s2)c(=O)n(-c2ccccc2)n1C (configuration not stated)
- EC50 [1]: 1590 nM (active)
- IC50 (Caspase-3 [2]): 13600 nM (active)
- AC50 (Caspase-9): 41300 nM (active)

SMILES: COc1cc(Br)c(C(=O)c2nccc3cc(OC)c(OC)cc23)cc1OC
- IC50 [3]: 52100 nM (not active)
- IC50 (Caspase-3 [4]): 407 nM (active)

SMILES: CC(N)C1CCC(C(=O)Nc2ccnc3[nH]ccc23)CC1 (configuration not stated)
- Ki [5]: 7.94 nM (active)
- Ki [6]: > 2000 nM (inactive)
- Ki [7]: 1260 nM (active)
- Ki [8]: > 1580 nM (inactive)
- Ki [9]: > 3160 nM (inactive)
- Ki [10]: > 1580 nM (inactive)
- Ki [11]: 25.1 nM (active)
- Ki [12]: > 5010 nM (inactive)
- Ki [13]: > 2000 nM (inactive)
- Ki [14]: > 7940 nM (inactive)
- Ki [15]: > 6310 nM (inactive)
- Ki [16]: > 2000 nM (inactive)
- Ki [17]: > 6310 nM (inactive)
- Ki [18]: > 1580 nM (inactive)
- Ki [19]: > 5010 nM (inactive)
- Ki (Focal adhesion kinase 1): > 3160 nM (inactive)
- Ki [20]: > 1580 nM (inactive)
- Ki [21]: > 1580 nM (inactive)
- Ki [22]: > 1580 nM (inactive)
- Ki [23]: 1000 nM (active)
- Ki [24]: > 2000 nM (inactive)
- Ki [25]: > 3160 nM (inactive)
